Patent US10047105B2, “Gyrase inhibitors” (Merck Sharp & Dohme Corp., priority 2009, dated 2018)
In brackets after ≈: the same amount, converted by molar mass.

Experiments:
[1] = test system: S. aureus ATCC 13709; test: MIC, antibacterial potency, S. aureus; assay type: cell-based
[2] = test system: S. pneumoniae ATCC 51916; test: MIC, S. pneumoniae; assay type: cell-based
[3] = S. pneumoniae (Spn52), in µg/mL

Row | Compound | MIC, SA ([1]; S. aureus) | MIC Spn52 ([2]; S. pneumoniae) | MIC, SA ([1]; S. aureus (SA), in µg/mL) | MIC Spn52 [2, 3]
1 | CCc1[nH]c2nc(Sc3ccc4c(N)ncnc4c3)nc(N3CC4CNC4C3)c2c1Cl (centres unmarked) [700,689] | 2 µg/mL (≈ 4.42 µM) | 8 µg/mL (≈ 17.7 µM) |  | 
2 | CCc1[nH]c2nc(Sc3cnc4nccnc4c3)nc(N3CC(NS(=O)(=O)c4cnoc4C)C3)c2c1Cl [700,437] | ≤ 0.5 µg/mL | 2 µg/mL (≈ 3.58 µM) |  | 
3 | CCc1[nH]c2nc(Sc3cnc4nccnc4c3)nc(N3CC(CNC(=O)COCCOCCOC)C3)c2c1Cl [700,523] | 2 µg/mL (≈ 3.41 µM) | 4 µg/mL (≈ 6.81 µM) |  | 
4 | CCc1[nH]c2nc(Sc3cnc4nccnc4c3)nc(N3CC[C@@H](O)C3)c2c1Cl [700,428] | ≤ 0.5 µg/mL | 1 µg/mL (≈ 2.34 µM) |  | 
5 | CCc1[nH]c2nc(Sc3nc(C(=O)O)cs3)nc(N3CC(F)(F)C3)c2c1Cl.O=C(O)C(F)(F)F [700,338] | 8 µg/mL | 64 µg/mL |  | 
6 | CCc1[nH]c2nc(Oc3cccc(C#N)c3)nc(C3CC3)c2c1Cl [700,874] |  |  | 2 | 8
7 | CCc1[nH]c2nc(Sc3cnc4c(N)nc(C)nc4c3)nc(OCCn3ccnc3)c2c1Cl.O=C(O)C(F)(F)F [700,494] | > 64 µg/mL | > 64 µg/mL |  | 
8 | CCc1[nH]c2nc(Sc3cnc4nccnc4c3)nc(NCCN(C)C)c2c1Cl.O=C(O)C(F)(F)F [700,513] | > 64 µg/mL | 32 µg/mL |  | 
9 | CCc1[nH]c2nc(Sc3nc(C(=O)O)cs3)nc(NCCCn3ccnc3)c2c1Cl [700,323] | > 64 µg/mL | > 64 µg/mL |  | 
10 | CCc1[nH]c2nc(Sc3ccc4c(N)nc(N)nc4c3)nc(N3CCC3)c2c1Cl.O=C(O)C(F)(F)F.O=C(O)C(F)(F)F [700,480] | 16 µg/mL | > 64 µg/mL |  | 
11 | Cc1[nH]c2nc(Sc3cc(=O)[nH]c(=O)[nH]3)nc(N3CC(O)C3)c2c1Br [700,362] | > 64 µg/mL | > 64 µg/mL |  | 
12 | CCc1[nH]c2nc(Sc3cnc4cccnc4n3)nc(N3CC(O)C3)c2c1Cl [700,345] | ≤ 0.5 µg/mL | 2 µg/mL (≈ 4.83 µM) |  | 
13 | CCc1[nH]c2nc(Sc3cnc4cccnc4c3)nc(N3CC4CNC4C3)c2c1Cl (centres unmarked) [700,660] | ≤ 0.5 µg/mL | 1 µg/mL (≈ 2.28 µM) |  | 
14 | CCc1[nH]c2nc(Sc3nc(C(=O)O)cs3)nc(NC[C@H](C)O)c2c1Cl [700,322] | > 64 µg/mL | > 64 µg/mL |  | 
15 | CCc1nc2c(N3CC(N)C3)nc(Sc3cnc4c(N)nc(C)nc4c3)nc2[nH]1 [700,538] | > 16 µg/mL | > 16 µg/mL |  | 
16 | CCc1[nH]c2nc(Cl)nc(Oc3ccc4nccnc4c3)c2c1Cl [700,612] | > 64 µg/mL | > 64 µg/mL |  | 
17 | CCc1[nH]c2nc(Sc3cnc4cccnc4c3)nc(N3CC(N)C4(CC4)C3)c2c1Cl (centres unmarked) [700,869] |  |  | 2 | 4
18 | CCc1[nH]c2nc(Sc3cnc4cccnc4c3)nc(N3CC4CNC4C3)c2c1Cl.O=C(O)C(F)(F)F.O=C(O)C(F)(F)F (centres unmarked) [700,796] |  |  | <=0.5 | 1
19 | CCc1[nH]c2nc(Nc3cnc4c(c3)nnn4CC3CC3)nc(N3CC(S(=O)(=O)CC4CC4)C3)c2c1Br.O=C(O)C(F)(F)F [700,496] | > 64 µg/mL | > 64 µg/mL |  | 
20 | CCc1[nH]c2nc(Sc3nc(C(=O)O)cs3)nc(N3CC(Cc4c(Cl)ncnc4Cl)C3)c2c1Cl.O=C(O)C(F)(F)F [700,317] | > 64 µg/mL | > 64 µg/mL |  | 
21 | CCc1[nH]c2nc(Sc3cnc4nccnc4c3)nc(Oc3cccc(C#N)c3)c2c1Cl [700,833] |  |  | <=0.5 | 2
22 | CCc1[nH]c2nc(Sc3ccc4c(N5CC(CN)C5)ncnc4c3)nc(N3CC[C@@H](N)C3)c2c1Cl [700,904] |  |  | 32 | >64
23 | CCc1[nH]c2nc(Sc3cnc4c(N)nc(N)nc4c3)nc(OCc3cccnc3)c2c1Cl.O=C(O)C(F)(F)F.O=C(O)C(F)(F)F [700,492] | 8 µg/mL | > 64 µg/mL |  | 

Row | Compound | MIC, SA ([1]; S. aureus) | MIC Spn52 ([2]; S. pneumoniae) | MIC, SA ([1]; S. aureus (SA), in µg/mL) | MIC Spn52 [2, 3]
24 | CCc1[nH]c2nc(Sc3cc(=O)n(C)c(=O)[nH]3)nc(N3CC(N)C3)c2c1Br.O=C(O)C(F)(F)F [700,545] | 2 µg/mL | 4 µg/mL |  | 
25 | CCc1[nH]c2nc(Sc3cnc4nccnc4c3)nc(N3CC(NS(C)(=O)=O)C3)c2c1Cl [700,435] | ≤ 0.5 µg/mL | 1 µg/mL (≈ 2.04 µM) |  | 
26 | CCc1[nH]c2nc(Sc3cnc4ccoc4c3)nc(N3CC4CNC4C3)c2c1Cl.O=C(O)C(F)(F)F (centres unmarked) [700,677] | 2 µg/mL | 8 µg/mL |  | 
27 | CCc1[nH]c2nc(Sc3nc(C(=O)OC)cs3)nc(Cl)c2c1Cl [700,320] | > 64 µg/mL | > 64 µg/mL |  | 
28 | CCNC(=O)NCC1CN(c2nc(Sc3cnc4nccnc4c3)nc3[nH]c(CC)c(Cl)c23)C1 [700,491] | ≤ 0.5 µg/mL | 1 µg/mL (≈ 2.01 µM) |  | 
29 | CCc1[nH]c2nc(Sc3cnc4cccnc4c3)nc(N3CC4CCNC4C3)c2c1Cl (centres unmarked) [700,801] |  |  | <=0.5 | <=0.5
30 | CCc1[nH]c2nc(Sc3cnc4nccnc4c3)nc(N3CCC(N4CCN(C)CC4)C3)c2c1Cl.O=C(O)C(F)(F)F.O=C(O)C(F)(F)F (centres unmarked) [700,700] | 4 µg/mL | 8 µg/mL |  | 
31 | CCc1[nH]c2nc(Sc3cnc4cccnc4c3)nc(N3CCC(N)(C(=O)N[C@H](CO)C(=O)O)C3)c2c1Cl (some centres unmarked) [700,891] |  |  | >64 | >64
32 | CCc1[nH]c2nc(Sc3cnc4nccnc4c3)nc(N3CC(NC(=O)C4CNC4)C3)c2c1Cl [700,842] |  |  | 4 | >64
33 | CCc1[nH]c2nc(Sc3cc(F)cc(F)c3C#N)nc(N3CC[C@@H](N)C3)c2c1Cl [700,848] |  |  | 64 | 64
34 | CCc1[nH]c2nc(Sc3cnc(Oc4cccnc4)nc3)nc(N3CC(N)C3)c2c1Cl [700,561] | 16 µg/mL (≈ 35.2 µM) | 32 µg/mL (≈ 70.3 µM) |  | 
35 | CCc1[nH]c2nc(Sc3cnc4nccnc4c3)nc(N3CC(O)C3)c2c1Br [700,392] | ≤ 0.5 µg/mL | ≤ 0.5 µg/mL |  | 
36 | CCc1[nH]c2nc(Sc3cccnc3)nc(NCCCn3ccnc3)c2c1Br.O=C(O)C(F)(F)F.O=C(O)C(F)(F)F [700,269] | 4 µg/mL | 16 µg/mL |  | 
37 | CCc1[nH]c2nc(Sc3cnc4nccnc4c3)nc(N3CC(CNS(C)(=O)=O)C3)c2c1Cl [700,487] | ≤ 0.5 µg/mL | ≤ 0.5 µg/mL |  | 
38 | CCc1[nH]c2nc(Oc3ccc(OC)nc3)nc(Oc3ccc(OC)nc3)c2c1Br.O=C(O)C(F)(F)F [700,591] | 2 µg/mL | > 64 µg/mL |  | 
39 | CCOc1nc(Sc2cc(C(=O)NC3CC3)ccn2)nc2[nH]c(CC)c(Br)c12 [700,305] | > 64 µg/mL | > 64 µg/mL |  | 
40 | CCOc1ccc(Nc2nc(OCC)c3c(Br)c(CC)[nH]c3n2)cn1.O=C(O)C(F)(F)F [700,417] | 1 µg/mL | 16 µg/mL |  | 
41 | CCc1[nH]c2nc(Sc3cnc4nccnc4c3)nc(N3C[C@@H]4[C@H](C3)[C@H]4N(Cc3ccccc3)Cc3ccccc3)c2c1Cl [700,822] |  |  | >64 | >64
42 | CCc1[nH]c2nc(Sc3cc(=O)n(C)c(=O)[nH]3)nc(N3CC(O)C3)c2c1Br [700,433] | ≤ 0.5 µg/mL | 1 µg/mL (≈ 2.21 µM) |  | 
43 | CCc1[nH]c2nc(Oc3cccc(C#N)c3)nc(C(C)=O)c2c1Cl [700,893] |  |  | 4 | 8
44 | CCc1[nH]c2nc(Sc3cnc(N4CC(O)C4)c(C#N)c3)nc(N3CCC(N)C3)c2c1Cl (centres unmarked) [700,590] | 4 µg/mL (≈ 8.49 µM) | 16 µg/mL (≈ 34 µM) |  | 
45 | CCc1[nH]c2nc(Sc3cnc4nccnc4c3)nc(NCCN)c2c1Cl.O=C(O)C(F)(F)F [700,509] | 16 µg/mL | 16 µg/mL |  | 
46 | CCc1[nH]c2nc(Sc3cnc4nccnc4c3)nc(N3CC(CNC(=O)CCN4CCCCC4)C3)c2c1Cl [700,518] | 4 µg/mL (≈ 7.07 µM) | 4 µg/mL (≈ 7.07 µM) |  | 
